Drawing on ChEMBL document CHEMBL1133841 (Bioorg Med Chem Lett, 2001), this text covers IC50 and Selectivity for 13 molecules.

Assay [1] deals with T1, Serine-threonine protein phosphatase 2A regulatory subunit (Gallus gallus, UniProt Q8AWE3).
T1 sequence (Q8AWE3 whole entry): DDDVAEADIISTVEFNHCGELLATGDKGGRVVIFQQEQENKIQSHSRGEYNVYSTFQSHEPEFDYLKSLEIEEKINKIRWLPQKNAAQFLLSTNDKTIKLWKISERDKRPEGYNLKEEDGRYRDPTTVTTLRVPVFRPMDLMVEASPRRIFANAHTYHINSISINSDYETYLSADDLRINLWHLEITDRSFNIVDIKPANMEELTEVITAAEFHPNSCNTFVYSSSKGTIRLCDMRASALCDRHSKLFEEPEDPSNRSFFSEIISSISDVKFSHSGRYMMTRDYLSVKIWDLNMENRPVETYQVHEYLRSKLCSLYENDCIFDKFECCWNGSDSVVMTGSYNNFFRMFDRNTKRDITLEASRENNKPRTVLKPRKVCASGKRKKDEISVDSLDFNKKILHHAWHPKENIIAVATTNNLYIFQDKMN
The assay can be described thus: Inhibitory concentration against protein phosphatase 2A (PP2A) was determined.

The nature of assay [2]: Selectivity expressed as the ratio of PP2A/PP1 was determined.
In assay [3] the target is T2, Serine-threonine protein phosphatase 2A regulatory subunit (Gallus gallus) (UniProt Q8AWE3).
T2 sequence (whole entry): T1 sequence (Q8AWE3 whole entry)
The assay can be described thus: Selectivity expressed as the ratio of Protein phosphatase 2A/Protein phosphatase 1 was determined.

Assay [4] concerns the target Serine/threonine-protein phosphatase PP1 catalytic subunit. The assay can be described thus: Inhibitory concentration against protein phosphatase 1 was determined.

As for `O=C(O)[C@H](Cc1c[nH]c2ccccc12)N1C(=O)[C@@H]2[C@H](C1=O)[C@H]1CC[C@@H]2O1`, in assay [1], the IC50 (in general, the midpoint of a concentration-inhibition curve) came to 105 µM.
The molecule `O=C(O)[C@@H](Cc1c[nH]c2ccccc12)N1C(=O)[C@@H]2[C@H](C1=O)[C@H]1CC[C@@H]2O1` displayed an IC50 in assay [1] of 157 µM.
In the case of `O=C(O)[C@@H](Cc1ccccc1)N1C(=O)[C@@H]2[C@H](C1=O)[C@H]1CC[C@@H]2O1`, the IC50 in assay [1] is above 1000 µM.
Regarding `O=C(O)[C@H](Cc1ccccc1)N1C(=O)[C@@H]2[C@H](C1=O)[C@H]1CC[C@@H]2O1`, the IC50 in assay [1] is above 1000 µM.
Regarding `CSC[C@@H](C(=O)O)N1C(=O)[C@@H]2[C@H](C1=O)[C@H]1CC[C@@H]2O1`, the IC50 in assay [1] is above 1000 µM.
Still for that read-out and setting: the figure for `C[C@H](C(=O)O)N1C(=O)[C@@H]2[C@H](C1=O)[C@H]1CC[C@@H]2O1` is 150 µM.
In assay [1], `O=C(O)CC[C@H](C(=O)O)N1C(=O)[C@@H]2[C@H](C1=O)[C@H]1CC[C@@H]2O1` showed an IC50 of 32 µM. Further, the Selectivity in assay [2] came to 3.
`C[C@@H](C(=O)O)N1C(=O)[C@@H]2[C@H](C1=O)[C@H]1CC[C@@H]2O1` yielded an IC50 in assay [1] above 1000 µM.
Turning to `O=C(O)[C@H](Cc1c[nH]cn1)N1C(=O)[C@@H]2[C@H](C1=O)[C@H]1CC[C@@H]2O1`, the IC50 in assay [1] came to 1.35 µM.
Consider `CC(C)C[C@@H](C(=O)O)N1C(=O)[C@@H]2[C@H](C1=O)[C@H]1CC[C@@H]2O1`, for which the IC50 in assay [1] is above 1000 µM.
`CCOC(=O)C1C(C(=O)O)[C@@H]2CC[C@H]1O2` (stereo not given in full): the Selectivity in assay [3] amounted to 6.5. Moreover, the midpoint of inhibition in assay [4], the IC50, lay at 2.96 µM.
In the case of `CC(C)C[C@H](C(=O)O)N1C(=O)[C@@H]2[C@H](C1=O)[C@H]1CC[C@@H]2O1`, in assay [1], the IC50 is above 1000 µM.
Consider `O=C(O)[C@@H](Cc1cnc[nH]1)N1C(=O)[C@@H]2[C@H](C1=O)[C@H]1CC[C@@H]2O1`, for which half-maximal inhibition in assay [1] (IC50) required 0.81 µM.
